Data set [1] in a line: Absorption spectrum in solution (absorption maximum λmax, absorption coefficient). The data set is classed as physicochemical. The text has this: It is preferable that the compound represented by Formula (1) is a compound having an absorption maximum in a wavelength range of 700 to 1200 nm. In addition, a ratio A1/A2 of an absorbance A1 at a wavelength of 500 nm to an absorbance A2 at the absorption maximum is preferably 0.1 or lower and more preferably 0.05 or lower. The absorbance of the compound is a value obtained from the absorption spectrum of the compound in the solution. Examples of a measurement solvent used for the measurement of the absorption spectrum of the compound represented by Formula (1) in the solution include chloroform, dimethyl sulfoxide, and tetrahydrofuran. In a case where the compound represented by Formula (1) is soluble in chloroform, chloroform is used as the measurement solvent. In addition, in a case where the compound represented by Formula (1) is not soluble in chloroform and is soluble in dimethyl sulfoxide or tetrahydrofuran, dimethyl sulfoxide or tetrahydrofuran is used as the measurement solvent.

Data set [2] can be described thus: Measurement of solubility in solvent at 25° C. The data set is classed as physicochemical. To be noted: organic solvent or mixture, thermodynamic from solid; in propylene glycol monomethyl ether acetate and 2-butanol at 25° C. On the procedure: <Measurement of Solubility>
A measurement sample was added to a solvent at 25° C. under the atmospheric pressure, the solution was stirred for 1 hour, and the solubility of the measurement sample in the solvent was obtained.

Regarding `CCC(C)COc1ccc(-c2c3c(=C(C#N)c4nc5ccccc5s4)n(B(c4ccccc4)c4ccccc4)c(-c4ccc(OCC(C)CC)cc4)c3c(=C(C#N)c3nc4ccccc4s3)n2B(c2ccccc2)c2ccccc2)cc1` (centres unmarked) [A-1], the “λmax (absorption maximum)” value in data set [1] (in chloroform) is 780 nm. On the same count and under the same terms, for `CCC(C)COc1ccc(-c2c3c(=C(C#N)c4nc5cc(Cl)ccc5s4)n(B(c4ccccc4)c4ccccc4)c(-c4ccc(OCC(C)CC)cc4)c3c(=C(C#N)c3nc4cc(Cl)ccc4s3)n2B(c2ccccc2)c2ccccc2)cc1` (centres unmarked) [A-2] the value was 782 nm; for `CCC(C)COc1ccc(-c2c3c(=C(C#N)c4nc5ccc(Cl)cc5s4)n(B(c4ccccc4)c4ccccc4)c(-c4ccc(OCC(C)CC)cc4)c3c(=C(C#N)c3nc4ccc(Cl)cc4s3)n2B(c2ccccc2)c2ccccc2)cc1` (centres unmarked) [A-3], 786 nm.

`CCC(C)COc1ccc(-c2c3c(=C(C#N)c4nc5cc(C)ccc5s4)n(B(c4ccccc4)c4ccccc4)c(-c4ccc(OCC(C)CC)cc4)c3c(=C(C#N)c3nc4cc(C)ccc4s3)n2B(c2ccccc2)c2ccccc2)cc1` (centres unmarked) [A-4]: the “λmax (absorption maximum)” value in data set [1] (in chloroform) is reported as 785 nm. On the same count and under the same terms, for `CCC(C)COc1ccc(-c2c3c(=C(C#N)c4nc5ccc(C)cc5s4)n(B(c4ccccc4)c4ccccc4)c(-c4ccc(OCC(C)CC)cc4)c3c(=C(C#N)c3nc4ccc(C)cc4s3)n2B(c2ccccc2)c2ccccc2)cc1` (centres unmarked) [A-5] the value was 788 nm; for `CCC(C)COc1ccc(-c2c3c(=C(C#N)c4nc5cc(C)c(C)cc5s4)n(B(c4ccccc4)c4ccccc4)c(-c4ccc(OCC(C)CC)cc4)c3c(=C(C#N)c3nc4cc(C)c(C)cc4s3)n2B(c2ccccc2)c2ccccc2)cc1` (centres unmarked) [A-6], 794 nm; for `CCC(C)COc1ccc(-c2c3c(=C(C#N)c4nc5cc(OC)ccc5s4)n(B(c4ccccc4)c4ccccc4)c(-c4ccc(OCC(C)CC)cc4)c3c(=C(C#N)c3nc4cc(OC)ccc4s3)n2B(c2ccccc2)c2ccccc2)cc1` (centres unmarked) [A-7], 794 nm. On the same count and under the same terms, for `CCC(C)COc1ccc(-c2c3c(=C(C#N)c4nc5ccc(OC)cc5s4)n(B(c4ccccc4)c4ccccc4)c(-c4ccc(OCC(C)CC)cc4)c3c(=C(C#N)c3nc4ccc(OC)cc4s3)n2B(c2ccccc2)c2ccccc2)cc1` (centres unmarked) [A-8] the value was 802 nm.

Consider `N#CC(c1nc2ccccc2s1)=c1c2c(-c3ccc(O)cc3)n(B(c3ccccc3)c3ccccc3)c(=C(C#N)c3nc4ccccc4s3)c2c(-c2ccc(O)cc2)n1B(c1ccccc1)c1ccccc1` [A-9], for which the “λmax (absorption maximum)” value in data set [1] (in dimethyl sulfoxide (DMSO)) came to 782 nm. On the same count and under the same terms, in the case of `N#CC(c1nc2cc(Cl)ccc2s1)=c1c2c(-c3ccc(O)cc3)n(B(c3ccccc3)c3ccccc3)c(=C(C#N)c3nc4cc(Cl)ccc4s3)c2c(-c2ccc(O)cc2)n1B(c1ccccc1)c1ccccc1` [A-10] it was 782 nm; in that of `Cc1cc2nc(C(C#N)=c3c4c(-c5ccc(O)cc5)n(B(c5ccccc5)c5ccccc5)c(=C(C#N)c5nc6cc(C)c(C)cc6s5)c4c(-c4ccc(O)cc4)n3B(c3ccccc3)c3ccccc3)sc2cc1C` [A-14], 795 nm. In data set [1], `COc1ccc2sc(C(C#N)=c3c4c(-c5ccc(O)cc5)n(B(c5ccccc5)c5ccccc5)c(=C(C#N)c5nc6cc(OC)ccc6s5)c4c(-c4ccc(O)cc4)n3B(c3ccccc3)c3ccccc3)nc2c1` [A-15] gave a gram absorption coefficient of 200 L/g/cm and a molar absorption coefficient of 185000 L/mol/cm. Also, the “λmax (absorption maximum)” value in data set [1] (in dimethyl sulfoxide (DMSO)) came out at 795 nm.

In the case of `CCC(C)COc1cccc(-c2c3c(=C(C#N)c4nc5ccccc5s4)n(B(c4ccccc4)c4ccccc4)c(-c4cccc(OCC(C)CC)c4)c3c(=C(C#N)c3nc4ccccc4s3)n2B(c2ccccc2)c2ccccc2)c1` (centres unmarked) [A-25], the “λmax (absorption maximum)” value in data set [1] (in chloroform) stood at 782 nm.

Turning to `CCC(C)COc1cccc(-c2c3c(=C(C#N)c4nc5cc(C)c(C)cc5s4)n(B(c4ccccc4)c4ccccc4)c(-c4cccc(OCC(C)CC)c4)c3c(=C(C#N)c3nc4cc(C)c(C)cc4s3)n2B(c2ccccc2)c2ccccc2)c1` (centres unmarked) [A-30], in data set [1] (in chloroform), the “λmax (absorption maximum)” value turned out to be 795 nm.

As for `CCC(C)COc1ccc(-c2c3c(=C(C#N)c4nc5ccccc5s4)n(B4Oc5ccccc5O4)c(-c4ccc(OCC(C)CC)cc4)c3c(=C(C#N)c3nc4ccccc4s3)n2B2Oc3ccccc3O2)cc1` (centres unmarked) [A-60], the “λmax (absorption maximum)” value in data set [1] (in chloroform) amounted to 717 nm. On the same count and under the same terms, in the case of `COc1ccc2sc(C(C#N)=c3c4c(-c5ccc(OC(=O)c6ccccc6)cc5)n(B(c5ccccc5)c5ccccc5)c(=C(C#N)c5nc6cc(OC)ccc6s5)c4c(-c4ccc(OC(=O)c5ccccc5)cc4)n3B(c3ccccc3)c3ccccc3)nc2c1` [A-81] it was 800 nm; in that of `CCC(C)COc1ccc(-c2c3/c(=C(\C#N)c4cnc5ccccc5n4)n(B(c4ccccc4)c4ccccc4)c(-c4ccc(OCC(C)CC)cc4)c3/c(=C(\C#N)c3cnc4ccccc4n3)n2B(c2ccccc2)c2ccccc2)cc1` (centres unmarked) [A-201], 862 nm; in that of `CN1C(=O)c2ccc(C(=O)Oc3ccc(-c4c5c(=C(C#N)c6cnc7cc(Cl)c(Cl)cc7n6)n(B(c6ccccc6)c6ccccc6)c(-c6ccc(OC(=O)c7ccc8c(c7)C(=O)N(C)C8=O)cc6)c5c(=C(C#N)c5cnc6cc(Cl)c(Cl)cc6n5)n4B(c4ccccc4)c4ccccc4)cc3)cc2C1=O` [A-514], 883 nm.

Usually solubility stands for how much of the substance goes into solution per volume. For the compound `N#C/C(c1cnc2cc(Cl)c(Cl)cc2n1)=c1\c2c(-c3ccc(OC(=O)c4ccc5c(c4)C(=O)N(CCCS(=O)(=O)O)C5=O)cc3)n(B(c3ccccc3)c3ccccc3)/c(=C(/C#N)c3cnc4cc(Cl)c(Cl)cc4n3)c2c(-c2ccc(OC(=O)c3ccc4c(c3)C(=O)N(CCCS(=O)(=O)O)C4=O)cc2)n1B(c1ccccc1)c1ccccc1` [B-634], in data set [2], the solubility at 1 h is under 100 µg/mL.

Consider `CCN(CC)CCCN1C(=O)c2ccc(C(=O)Oc3ccc(-c4c5/c(=C(\C#N)c6cnc7cc(Cl)c(Cl)cc7n6)n(B(c6ccccc6)c6ccccc6)c(-c6ccc(OC(=O)c7ccc8c(c7)C(=O)N(CCCN(CC)CC)C8=O)cc6)c5/c(=C(\C#N)c5cnc6cc(Cl)c(Cl)cc6n5)n4B(c4ccccc4)c4ccccc4)cc3)cc2C1=O` [B-644], for which the solubility at 1 h in data set [2] was under 100 µg/mL. For the same compound, the “λmax (absorption maximum)” value in data set [1] (in chloroform) was determined as 883 nm.

The values above are taken from patent publication US11209582B2, “Composition, curable composition, cured film, near infrared cut filter, infrared transmitting filter, solid image pickup element, infrared sensor, and camera module” (FUJIFILM Corporation, priority 2016, dated 2021).
